Assay results as given in patent publication US20240366728A1, “Treatment of Diabetes Mellitus” (Carmot Therapeutics Inc., priority 2023, published 2024).
Values joined by “and” are separate entries in the source; they are usually repeats but may differ in a detail not shown here. Equal values may be shown once. “Also recorded” adds a separate entry of the source.

What was measured:
GIPR+/+ and GIPR-/- mice = experiment: intraperitoneal glucose tolerance test in GIPR+/+ and GIPR-/- mice; format: in vivo, mouse
[1] = system: lean C57BL/6J, GLP-1R+/+ and GLP-1R-/- mice; experiment: single intracerebroventricular injection: food consumption and body weight; conditions: for food consumption and body weight (in words) / body weight decreased / body weight decreased compared to liraglutide / food consumption lowered compared to liraglutide / food consumption lowered compared to vehicle: ICV 0.025 nmol; for body weight decreased / body weight decreased compared to liraglutide / food consumption lowered compared to liraglutide / food consumption lowered compared to vehicle: lean C57BL/6J
lean C57BL/6J mice = experiment: intraperitoneal glucose tolerance test in lean mice
C57BL/6J-DIO mice = experiment: intraperitoneal glucose tolerance test in DIO mice; format: in vivo, mouse; conditions: DIO mice; 20 nmol/kg
DIO C57BL/6J mice = experiment: chronic daily SC dosing in DIO mice (body weight, food, glucose, insulin, tissue weights); format: in vivo, mouse
Method: Body weight and food consumption were measured daily (FIGS. 8 and 9). On the last day of the study mice were fasted for 5 hours. At the end of the fasting period, glucose was measured (FIG. 6) and plasma was collected for insulin analysis. Plasma insulin was measured using an MSD kit. Fasting glucose and insulin were used to calculate the log (HOMA-IR) (FIG. 7).
Body weight was measured daily (FIG. 11). […] On the last day of the study, glucose was measured, and plasma was collected for insulin analysis. Plasma insulin was measured using an MSD kit. Glucose and insulin were used to calculate log (HOMA-IR) (FIG. 10).
DIO mice were acclimated to daily weighing and handling for approximately 1 week until their weight had stabilized. Mice were injected subcutaneously once daily with the indicated dose of peptide, or vehicle, based on current body weight. Injections were performed six hours before the dark cycle started to approximate reaching Tmax when the dark cycle started. Where indicated, 24-hour food consumption studies were performed as described above. Body weight as a percentage of initial weight was calculated daily by dividing the daily body weight by the body weight taken before the first dose of peptide, multiplied by 100%. Blood glucose was determined at study termination, and blood was collected to quantify plasma insulin concentrations. Mice were sedated by isoflurane and euthanized by decapitation. […] Plasma was stored at −80° C. until analysis. Subcutaneous and inguinal fat and the liver were removed and weighed.
DIO and ob/ob mice were acclimated to daily weighing and handling for approximately one week until weight had stabilized. […] Injections were performed six hours before the start of the dark cycle to approximate reaching Tmax when the dark cycle started. […] In both the DIO and ob/ob weight loss studies, body weight as a percentage of initial weight was calculated daily by dividing the daily body weight by the body weight taken before the first dose of peptide, multiplied by 100%. Blood glucose was determined at study termination, and blood was collected to quantify plasma insulin concentrations. Mice were sedated by isoflurane and euthanized by decapitation. […] Subcutaneous and inguinal fat and the liver were removed and weighed.

[2] = system: lean participants and participants with overweight/obesity; experiment: Phase 1 first-in-human SAD/MAD study: safety and tolerability; format: in vivo; conditions: for safety and tolerability (in words): no up-titration
Description: This was a randomized, double-blind, placebo-controlled, dose escalation first-in-human (FIH) conducted from December 2018 to January 2020 at a study center in Victoria, Australia in accordance with principles of the Declaration of Helsinki (Ethical Principles for Medical Research Involving Human Subjects), and the NHMRC National Statement on Ethical Conduct in Human Research 2007 (updated 2018). (Registered on the Australian New Zealand Clinical Trials Registry [ANZCTR] under the identifier: ACTRN12618001988246).
Daily doses were given on Day 2 to Day 14. Cohort M1 was dosed with the highest dose level, determined based on the safety and PK data from the preceding Part 1 (SAD), and doses were decreased sequentially for Cohorts M2 and M3 (FIG. 46B).
Following study drug administration, Part 1 (SAD) participants underwent safety and other assessments on Day 3 and Day 8 (±1 day, outpatient) and were followed for at least 30 days after the last administered dose of study drug. Part 2 (MAD) participants underwent safety and other assessments and discharged in the absence of clinically significant safety signals, following completion of all Day 16 assessments. All participants were followed for at least 30 days after the last administered dose of study drug. Participants were follow-up for safety and other assessments on Day 21 (±2 days, outpatient) and Day 44 (±3 days, teleconference).
The primary endpoints were the incidence, nature and severity of AEs, safety laboratory analytes, vital signs, electrocardiograms (ECGs), and incidence of events of special interest (AESI).
Adverse events were coded using the Medical Dictionary for Regulatory Activities (MedDRAR Version 21.1). The number of participants experiencing treatment-emergent AEs (TEAEs) and number of individual TEAEs are summarized by treatment, SOC, and PT. TEAEs are also summarized by severity and by relationship to study drug. AESIs are listed and summarized by treatment group. Listings of AEs leading to discontinuation of the study, SAEs and deaths, are provided as applicable.

Compound: CCCCCCCCCCCCCCCC(=O)N[C@@H](CCC(=O)NCCCC[C@H](NC(=O)[C@H](CO)NC(=O)[C@@H]1CCCN1C(=O)[C@@H]1CCCN1C(=O)[C@@H]1CCCN1C(=O)[C@H](C)NC(=O)CNC(=O)[C@H](CO)NC(=O)[C@H](CO)NC(=O)[C@@H]1CCCN1C(=O)CNC(=O)CNC(=O)[C@H](C)NC(=O)[C@H](CC(C)C)NC(=O)[C@H](CC(C)C)NC(=O)[C@H](Cc1c[nH]c2ccccc12)NC(=O)[C@H](CC(N)=O)NC(=O)[C@@H](NC(=O)[C@H](Cc1ccccc1)NC(=O)[C@H](CCC(=O)O)NC(=O)C(C)(C)NC(=O)[C@H](C)NC(=O)[C@H](C)NC(=O)[C@H](CCC(N)=O)NC(=O)[C@H](CCCCN)NC(=O)[C@H](CC(=O)O)NC(=O)[C@H](CC(C)C)NC(=O)[C@H](Cc1ccc(O)cc1)NC(=O)[C@@H](NC(=O)[C@H](CO)NC(=O)[C@H](Cc1ccc(O)cc1)NC(=O)[C@H](CC(=O)O)NC(=O)[C@H](CO)NC(=O)[C@@H](NC(=O)[C@H](Cc1ccccc1)NC(=O)[C@@H](NC(=O)CNC(=O)[C@H](CCC(=O)O)NC(=O)CSCC(=O)NCCN1C(=O)CSC1=O)[C@@H](C)O)[C@@H](C)O)[C@@H](C)CC)C(C)C)C(N)=O)C(=O)O [CT-859]
- reduction in GLUC AUC in GTT (GIPR+/+ and GIPR-/- mice; 20 nmol/kg, 4 h after dosing): 62%
- glucose lowering (in words) (GIPR+/+ and GIPR-/- mice; 20 and 200 nmol/kg): efficacious at lowering glucose levels
- duration of glucose lowering (in words) (GIPR+/+ and GIPR-/- mice; single 20 nmol/kg, ipGTT at 4, 24, 48 h): maintained its activity at 24 and 48 hours; also recorded: maintained significant reduction after 24 h and 48 h
- food consumption and body weight vs liraglutide after ICV (in words) [1]: decreased food consumption and body weight more than liraglutide
- food consumption and body weight (in words) ([1]; GLP-1R+/+ mice): suppressed food consumption and reduced body weight
- food consumption and body weight (in words) ([1]; GLP-1R-/- mice): no effect
- food consumption, body weight, blood glucose after ICV (in words) ([1]; GLP-1R-KO mice, 0.025 and 1 nmol/kg): did not have any significant effects on food consumption, body weight, or blood glucose
- food consumption, body weight after ICV (in words) ([1]; GLP-1R-WT mice, 0.025 and 1 nmol/kg, up to 72 h): dose dependent reduction of cumulative food consumption
- body weight decreased ([1]; 24 hours): 9%
- body weight decreased compared to liraglutide ([1]; 24 hours): 5%
- food consumption lowered compared to liraglutide ([1]; 24 hours): 45%
- food consumption lowered compared to vehicle ([1]; 24 hours): 63%
- body weight decreased ([1]; 48 hours): 5%
- body weight decreased compared to liraglutide ([1]; 48 hours): 5%
- food consumption lowered compared to liraglutide ([1]; 48 hours): 27%
- food consumption lowered compared to vehicle ([1]; 48 hours): 38%
- food intake and body weight vs equal dose of liraglutide (in words) ([1]; wildtype mice, ICV […], up to 19 h): significantly greater reduction of food intake and body weight
- in vivo potency vs liraglutide (in words) (lean C57BL/6J mice): more potent than liraglutide in vivo
- duration of glucose lowering (in words) (lean C57BL/6J mice; lean C57BL/6J and DIO mice, single 20 nmol/kg): remained efficacious up to 48 hours post-administration
- ED50 for improving post-prandial glucose in ipGTT (lean C57BL/6J mice; lean C57BL/6J mice, 4 h after SC dose): 0.46 nmol/kg
- acute effect on GLUC AUC (in words) (lean C57BL/6J mice; lean mice, 20 nmol/kg, 4 h after administration): acute reduction of glucose (GLUC) AUC
- reduction in GLUC AUC vs. vehicle (lean C57BL/6J mice; lean mice, 20 nmol/kg, 48 hours): 45%
- glucose AUC 4 hours after administration (in words) (C57BL/6J-DIO mice): more efficacious than liraglutide in DIO mice
- adipose tissue weight vs liraglutide (in words) (DIO C57BL/6J mice): decreases adipose tissue weight more than liraglutide
- body weight vs liraglutide (in words) (DIO C57BL/6J mice; 20 and 200 nmol/kg): decreases body weight more than liraglutide at non-GIPR and GIPR engaging doses
- body weight decreased compared to liraglutide, end of study (DIO C57BL/6J mice; DIO mice, 20 nmol/kg, 19 days): 8%
- body weight decreased compared to vehicle, end of study (DIO C57BL/6J mice; DIO mice, 20 nmol/kg, 19 days): 20%
- fasting glucose (in words) (DIO C57BL/6J mice; DIO mice, 20 nmol/kg, 19 days): lowered fasting glucose more than liraglutide
- inguinal adipose weight lower than vehicle (DIO C57BL/6J mice; DIO mice, 20 nmol/kg, 19 days): 39%
- cumulative food intake vs liraglutide (in words) (DIO C57BL/6J mice; DIO mice, 20 nmol/kg, 20 days): without significant difference in cumulative food intake
- fasting GLUC (DIO C57BL/6J mice; DIO mice, 20 nmol/kg, 20 days): 146.5 mg/dL
- weight loss (WL) (DIO C57BL/6J mice; DIO mice, 20 nmol/kg, 20 days): −16.5%
- insulin resistance log (HOMA-IR) (DIO C57BL/6J mice; DIO mice, 20 nmol/kg, 20 days, fasted): 0.74
- adipose weight (in words) (DIO C57BL/6J mice; DIO mice, 200 nmol/kg, 19 days): decreased inguinal and epididymal adipose weight more than liraglutide
- body weight decreased compared to liraglutide, end of study (DIO C57BL/6J mice; DIO mice, 200 nmol/kg, 19 days): 14%
- body weight decreased compared to vehicle, end of study (DIO C57BL/6J mice; DIO mice, 200 nmol/kg, 19 days): 33% and ~35%
- fed glucose levels (in words) (DIO C57BL/6J mice; DIO mice, 200 nmol/kg, 19 days): decreased fed glucose levels more than the vehicle
- nonfasted log (HOMA-IR) (DIO C57BL/6J mice; DIO mice, 200 nmol/kg, 20 days): 1.17
- weight loss (WL) (DIO C57BL/6J mice; DIO mice, 200 nmol/kg, 20 days): −30.1%
- food consumption lowered compared to liraglutide (DIO C57BL/6J mice; DIO mice, 200 nmol/kg, after 7 days of dosing): 39%
- food intake (DIO C57BL/6J mice; DIO mice, 200 nmol/kg, day 7): 1.2 g
- food intake (DIO C57BL/6J mice; DIO mice, 200 nmol/kg, day 14): 1.7 g
- additional weight loss over liraglutide (DIO C57BL/6J mice; DIO mice, GIPR-engaging dose): 10%

Compound: CCCCCCCCCCCCCCCC(=O)N[C@@H](CCC(=O)NCCCC[C@H](NC(=O)[C@H](CO)NC(=O)[C@@H]1CCCN1C(=O)[C@@H]1CCCN1C(=O)[C@@H]1CCCN1C(=O)[C@H](C)NC(=O)CNC(=O)[C@H](CO)NC(=O)[C@H](CO)NC(=O)[C@@H]1CCCN1C(=O)CNC(=O)CNC(=O)[C@H](C)NC(=O)[C@H](CC(C)C)NC(=O)[C@H](CC(C)C)NC(=O)[C@H](Cc1c[nH]c2ccccc12)NC(=O)[C@H](CC(N)=O)NC(=O)[C@@H](NC(=O)[C@H](Cc1ccccc1)NC(=O)[C@H](CCC(=O)O)NC(=O)C(C)(C)NC(=O)[C@H](C)NC(=O)[C@H](C)NC(=O)[C@H](CCC(N)=O)NC(=O)[C@H](CCCCN)NC(=O)[C@H](CC(=O)O)NC(=O)[C@H](CC(C)C)NC(=O)[C@H](Cc1ccc(O)cc1)NC(=O)[C@@H](NC(=O)[C@H](CO)NC(=O)[C@H](Cc1ccc(O)cc1)NC(=O)[C@H](CC(=O)O)NC(=O)[C@H](CO)NC(=O)[C@@H](NC(=O)[C@H](Cc1ccccc1)NC(=O)[C@@H](NC(=O)CNC(=O)[C@H](CCC(=O)O)NC(=O)CSCC(=O)NCCN1CCCCC1=O)[C@@H](C)O)[C@@H](C)O)[C@@H](C)CC)C(C)C)C(N)=O)C(=O)O [CT-868]
- participants reporting only nausea ([2]; MAD 0.75 mg): 2/6
- participants with abdominal pain ([2]; MAD 1.5 mg): 1/6
- participants with constipation ([2]; MAD 1.5 mg): 4/6
- participants with diarrhea ([2]; MAD 1.5 mg): 1/6
- participants with gastrointestinal symptoms ([2]; MAD 1.5 mg): 4/6
- participants with nausea ([2]; MAD 1.5 mg): 2/6
- participants with vomiting ([2]; MAD 1.5 mg): 2/6
- mild to moderate gastrointestinal symptoms (in words) ([2]; MAD 5.0 mg): reported by all six participants
- drug withdrawal due to drug-related TEAEs (in words) ([2]; MAD 5.0 mg, mild nausea and vomiting): One participant
- maximum tolerated single dose ([2]; SAD): 7.5 mg
- participants with drug-related TEAEs ([2]; SAD 7.5 mg, two events of nausea and one of diarrhea): 50%
- participants with gastrointestinal TEAEs ([2]; SAD 11.0 mg, twelve events, all drug-related): 100%
- SAEs and drug-induced hypoglycemia (in words) ([2]; SAD and MAD phases): no serious adverse events (SAEs) or drug-induced hypoglycemia events
- safety and tolerability (in words) ([2]; single doses up to 7.5 mg, up to 1.5 mg/day for 14 days): generally safe and well tolerated
- safety and tolerability (in words) ([2]; up to 11 mg single dose, up to 5 mg/day for 14 days): safe and well tolerated
